Reference: patent US12600725B2 (Memorial Sloan-Kettering Cancer Center, priority 2013, dated 2026)
Where “and” joins values, the source holds several entries; their conditions need not be identical. Identical values can stand only once. Entries after “also recorded” stand apart in the source; their conditions may differ. Like-named read-outs stand apart in the source and are kept apart here.

Experiments:
Trap-1 [1] = target: T1, Trap-1 (Homo sapiens, UniProt Q12931); conditions: for decrease in binding efficacy for Trap-1: relative to Hsp90; for loss of affinity for Trap-1: Hsp90 vs Trap-1
T1 sequence (Q12931 60-704): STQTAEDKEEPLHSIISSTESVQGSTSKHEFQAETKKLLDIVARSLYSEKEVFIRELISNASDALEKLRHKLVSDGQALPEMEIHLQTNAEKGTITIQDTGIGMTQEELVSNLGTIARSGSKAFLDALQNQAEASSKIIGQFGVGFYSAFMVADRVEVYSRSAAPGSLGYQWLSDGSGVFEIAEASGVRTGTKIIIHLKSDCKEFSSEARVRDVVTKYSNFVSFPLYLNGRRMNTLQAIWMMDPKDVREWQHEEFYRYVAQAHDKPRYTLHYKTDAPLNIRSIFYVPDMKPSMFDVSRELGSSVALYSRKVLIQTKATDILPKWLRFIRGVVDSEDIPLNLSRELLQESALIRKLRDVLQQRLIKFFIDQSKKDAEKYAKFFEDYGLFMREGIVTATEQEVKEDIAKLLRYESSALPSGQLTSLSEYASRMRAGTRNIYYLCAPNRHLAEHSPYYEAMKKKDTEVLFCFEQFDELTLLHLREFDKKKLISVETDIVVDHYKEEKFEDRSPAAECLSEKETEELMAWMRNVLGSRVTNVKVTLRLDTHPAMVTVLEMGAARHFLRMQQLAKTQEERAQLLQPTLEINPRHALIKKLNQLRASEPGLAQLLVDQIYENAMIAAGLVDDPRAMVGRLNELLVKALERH

Grp94 [2] = conditions: Hsp90 vs Grp94
Grp94 [3] = target: T2, Grp94 (Canis lupus familiaris, UniProt P41148); conditions: read-out: Grp94 IC50; 43a as FP probe
Grp94 [4] = target: T2, Grp94; conditions: read-out: Grp94; FP competition, 6 nM Cy3B-GM, 10 nM protein, 4° C. for 24 h
MDA-MB-468 cells = test: Growth inhibition assay (Alamar blue); assay type: cell-based; conditions: Homo sapiens
Protocol: We evaluated the antiproliferative effects of inhibitors using the dye Alamar blue. This reagent offers a rapid objective measure of cell viability in cell culture, and it uses the indicator dye resazurin to measure the metabolic capacity of cells, an indicator of cell viability. Briefly, MDA-MB-468 cells were plated on Costar 96-well plates at 1500 cells/well. Cells were allowed to incubate for 24 h at 37° C. before drug treatment. Drugs were added in triplicate at the indicated concentrations, and the plate was incubated for 72 h. Alamar Blue (440 μM) was added, and the plate read 6 h later using Softmax Pro 6 software (Fluorescence intensity mode, excitation 530 nm, emission 580 nm, with 560 nm dichroic mirror). Results were analyzed using GraphPad Prism 5. The percentage cell growth inhibition was calculated by comparing fluorescence readings obtained from treated versus control cells, accounting for initial cell population (time zero).

Hsp90α [5] = target: T3, Hsp90α (Homo sapiens, UniProt P07900); test: biochemical; conditions: FP competition, 6 nM Cy3B-GM, 10 nM protein, 4° C. for 24 h
Trap-1 [6] = target: T1, Trap-1; conditions: read-out: TRAP-1
Hsp90β = Hsp90β (Homo sapiens, UniProt P08238)
Hsp90α [7] = target: T3, Hsp90α; conditions: read-out: Hsp90α; FP competition, 6 nM Cy3B-GM, 10 nM protein, 4° C. for 24 h
[8] = test system: HER2 at the plasma membrane of SKBr3 cells; test: Immunofluorescence of HER2 architecture at the plasma membrane; assay type: cell-based
Protocol: We next investigated the biological significance of the unique association of HER^2 with Grp94 at the plasma membrane of SKBr3 cells. Because the Grp94 inhibitors described here target the ATP-binding pocket of Grp94, they affect Grp94 chaperone activity. Therefore we hypothesized that Grp94 may act on HER^2 at the plasma membrane to stabilize the protein and to regulate its function.
Immunofluorescence. Cells were seeded and grown onto culture slides (BD Falcon) for 24 hrs. After washing with cold PBS, cells were fixed by treating at 4° C. for 20 min with 4% paraformaldehyde in PBS, permeabilized with 0.1% Triton X-100 in PBS containing 10% FBS for 10 min, and blocked with 2% BSA for 1 hr. After washing for four times with PBS, primary antibodies were added onto the chambers and cell were incubated overnight at 4° C., washed again with PBS followed by incubation with the secondary antibody for 1 hr at room temperature. Cell were washed and then mounted and observed under microscope (Leica Upright Confocal SP5). The primary antibodies used in the assay are against: HER^2 (Zymed, 28004), Grp94 (Stressgen, SPA-850), Hsp70 (Stressgen, SPA-810), LAMP1-FITC (Abcam, ab25406), EEA1 (Abcam, ab70521), 58K Golgi-FITC (Abcam, ab27043) and Calnexin (BD, 610523).

T2 sequence (P41148 with tags, fused parts or gaps DELINS287-327GGGG): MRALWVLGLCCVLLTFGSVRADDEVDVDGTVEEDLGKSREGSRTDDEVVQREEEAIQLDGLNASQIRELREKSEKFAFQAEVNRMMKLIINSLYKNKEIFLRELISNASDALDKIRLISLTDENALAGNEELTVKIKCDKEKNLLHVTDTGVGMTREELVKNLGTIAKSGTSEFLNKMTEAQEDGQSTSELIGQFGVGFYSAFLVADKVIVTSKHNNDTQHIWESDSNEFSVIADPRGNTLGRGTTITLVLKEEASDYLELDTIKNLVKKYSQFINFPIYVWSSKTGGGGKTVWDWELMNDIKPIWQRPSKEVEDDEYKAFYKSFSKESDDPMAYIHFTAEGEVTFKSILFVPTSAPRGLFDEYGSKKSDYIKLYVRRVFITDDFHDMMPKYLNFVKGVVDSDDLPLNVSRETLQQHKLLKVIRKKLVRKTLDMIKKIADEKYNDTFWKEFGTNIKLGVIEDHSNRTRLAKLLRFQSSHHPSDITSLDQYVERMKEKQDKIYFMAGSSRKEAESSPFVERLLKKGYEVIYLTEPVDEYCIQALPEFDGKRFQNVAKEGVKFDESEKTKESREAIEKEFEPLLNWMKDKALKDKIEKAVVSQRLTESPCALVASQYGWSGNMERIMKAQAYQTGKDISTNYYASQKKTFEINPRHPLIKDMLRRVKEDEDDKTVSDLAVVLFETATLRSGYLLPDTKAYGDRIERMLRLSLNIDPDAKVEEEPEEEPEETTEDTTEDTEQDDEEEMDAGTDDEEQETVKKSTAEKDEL
Hsp90β, sequence (P08238 whole entry): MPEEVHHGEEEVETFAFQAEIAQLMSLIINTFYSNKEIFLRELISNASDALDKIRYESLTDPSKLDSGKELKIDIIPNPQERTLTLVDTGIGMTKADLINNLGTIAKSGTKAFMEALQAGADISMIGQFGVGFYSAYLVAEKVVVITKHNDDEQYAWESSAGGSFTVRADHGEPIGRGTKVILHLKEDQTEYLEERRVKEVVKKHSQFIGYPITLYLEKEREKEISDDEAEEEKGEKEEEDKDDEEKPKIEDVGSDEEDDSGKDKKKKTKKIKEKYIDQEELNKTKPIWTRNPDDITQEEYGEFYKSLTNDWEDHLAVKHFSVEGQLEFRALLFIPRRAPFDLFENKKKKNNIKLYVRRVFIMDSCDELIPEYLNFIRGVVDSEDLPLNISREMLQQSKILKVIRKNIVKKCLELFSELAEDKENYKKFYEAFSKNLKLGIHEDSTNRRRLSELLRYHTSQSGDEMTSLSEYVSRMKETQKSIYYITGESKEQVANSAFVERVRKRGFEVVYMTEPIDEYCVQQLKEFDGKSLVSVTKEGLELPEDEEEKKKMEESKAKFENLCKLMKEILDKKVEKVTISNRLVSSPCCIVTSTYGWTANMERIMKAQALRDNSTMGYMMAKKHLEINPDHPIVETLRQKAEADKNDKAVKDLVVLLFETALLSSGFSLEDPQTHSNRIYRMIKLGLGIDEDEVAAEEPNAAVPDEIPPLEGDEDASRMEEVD

| IC50 (Grp94 [4]) | IC50 (MDA-MB-468 cells) [nM] | IC50 (Hsp90α [5]) [nM] | Structure (SMILES) | further results |
| --- | --- | --- | --- | --- |
| – | – | – | COc1c(C)cnc(Cn2cnc3c(Cl)nc(N)nc32)c1C [BIIB021] | decrease in binding efficacy for Trap-1 (Trap-1 [1]): 5 fold; loss of affinity for Grp94 (Grp94 [2]): approximately 10 fold |
| – | – | – | CN(C)c1cc2c(cc1Sc1nc3c(N)nccc3n1CCNCC(C)(C)C)OCO2 [CUDC-305/Debio092] | loss of affinity for Trap-1 (Trap-1 [1]): ~2 log; loss of affinity for Grp94 (Grp94 [2]): approximately 10 fold |
| – | – | – | C=CCNC1=C2C[C@@H](C)C[C@H](OC)[C@H](O)[C@@H](C)/C=C(\C)[C@H](OC(N)=O)[C@@H](OC)/C=C\C=C(/C)C(=O)NC(=CC1=O)C2=O [Compound 17-AAG] | loss of affinity for Trap-1 (Trap-1 [1]): ~2 log; IC50 (Trap-1 [1]; read-out: Trap-1 IC50, 43a as FP probe): 1500 nM; IC50 (Trap-1 [1]; read-out: binding affinity (FP competition), probe 115a): 1500 nM; IC50 (Grp94 [3]): 31 nM |
| 1300 nM | 3120 | 29600 | CC(C)NCCCn1c(Sc2cc(Cl)cc(-c3ncco3)c2)nc2c(N)ncnc21 [HJP-VI-49, 8-((3-chloro-5-(oxazol-2-yl)phenyl)thio)-9-(3-(isopropylamino)propyl)-9H-purin-6-amine] | – |
| 340 nM | 226 | > 50000 | C/C=C/c1cc(Cl)cc(Sc2nc3c(N)ncnc3n2CCCNC(C)C)c1 [HJP-VI-63, (E)-8-((3-chloro-5-(prop-1-en-1-yl)phenyl)thio)-9-(3-(isopropylamino)propyl)-9H-purin-6-amine] | – |
| 153 nM | 2160 | 13800 | C=C(c1cc(Cl)cc(Sc2nc3c(N)ncnc3n2CCCNC(C)C)c1)C(F)(F)F [HJP-VI-70, 8-((3-chloro-5-(3,3,3-trifluoroprop-1-en-2-yl)phenyl)thio)-9-(3-(isopropylamino)propyl)-9H-purin-6-amine] | – |
| 214 nM | 580 | 18600 | C/C=C\c1cc(Cl)cc(Sc2nc3c(N)ncnc3n2CCCNC(C)C)c1 [HJP-VI-78, (Z)-8-((3-chloro-5-(prop-1-en-1-yl)phenyl)thio)-9-(3-(isopropylamino)propyl)-9H-purin-6-amine] | – |
| 186 nM | 164 | > 50000 | CC(C)(C)CNCCCn1c(Sc2cc(Cl)cc(Cl)c2)nc2c(N)nc(F)nc21 [HJP-VI-85, 8-((3,5-dichlorophenyl)thio)-2-fluoro-9-(3-(neopentylamino)propyl)-9H-purin-6-amine] | – |
| 156 nM | 53 | 20900 | CC(C)(C)NCCCn1c(Sc2cc(Cl)cc(Cl)c2)nc2c(N)nc(F)nc21 [HJP-VI-86, 9-(3-(tert-butylamino)propyl)-8-((3,5-dichlorophenyl)thio)-2-fluoro-9H-purin-6-amine] | – |
| – | – | – | CCNC(=O)c1noc(-c2cc(C(C)C)c(O)cc2O)c1-c1ccc(CN2CCOCC2)cc1 [NVP-AUY922] | decrease in binding efficacy for Trap-1 (Trap-1 [1]): 2 fold |
| – | – | – | CC1(C)CC(=O)c2c(C(F)(F)F)nn(-c3ccc(C(N)=O)c(N[C@H]4CC[C@H](O)CC4)c3)c2C1 [SNX-2112] | loss of affinity for Grp94 (Grp94 [2]): approximately 10 fold |
| 345 nM | 830 | 40400 | C[C@H](NCCCn1c(Sc2cc(Cl)cc(Cl)c2)nc2c(N)ncnc21)C1CC1 [SO-III-127B, (S)-9-(3-((1-cyclopropylethyl)amino)propyl)-8-((3,5-dichlorophenyl)thio)-9H-purin-6-amine] | – |
| 276 nM | 840 | 35600 | C[C@@H](NCCCn1c(Sc2cc(Cl)cc(Cl)c2)nc2c(N)ncnc21)C1CC1 [SO-III-128B, (R)-9-(3-((1-cyclopropylethyl)amino)propyl)-8-((3,5-dichlorophenyl)thio)-9H-purin-6-amine] | – |
| – | – | – | CC(C)c1cc(-c2n[nH]c(=O)n2-c2ccc3c(ccn3C)c2)c(O)cc1O [STA-9090] | IC50 (Grp94 [3]): 10 nM |
| 410 nM and 407 nM | – | – | CC(C)NCCCn1c(Sc2ccc(Cl)cc2Cl)nc2c(N)ncnc21 [WS-12, 8-((2,4-Dichlorophenyl)thio)-9-(3-(isopropylamino)propyl)-9H-purin-6-amine] | IC50 (Hsp90α [7]): 20300 ± 1200 nM |
| – | – | – | CS(=O)(=O)CCNCc1ccc(-c2ccc3ncnc(Nc4ccc(OCc5cccc(F)c5)c(Cl)c4)c3c2)o1 [lapatinib] | effect on HER2 architecture at the plasma membrane [8]: does not disrupt the HER^2 architecture at the plasma membrane; also recorded: No such effect was observed |

| Structure (SMILES) | IC50 (Grp94 [4]) | IC50 (MDA-MB-468 cells) [nM] | IC50 (Hsp90α [5]) [nM] | further results |
| --- | --- | --- | --- | --- |
| C#CCCCn1c(Sc2cc(C)cc(C)c2)nc2c(N)ncnc21 [PU-H4] | 11500 ± 920 nM | – | > 300000 | IC50 (Trap-1 [6]): 158000 ± 9700 nM; IC50 (Hsp90β): > 300000 nM |
| C#CCCCn1c(Sc2cc(C)ccc2C)nc2c(N)ncnc21 [PU-H27] | – | – | > 300000 | IC50 (Trap-1 [6]): 204000 ± 11000 nM; IC50 (Hsp90β): > 300000 nM |
| C#CCCCn1c(Sc2cc(Cl)ccc2Cl)nc2c(N)ncnc21 [PU-H42] | 530 ± 100 nM | – | – | IC50 (Trap-1 [6]): 5100 ± 4200 nM; IC50 (Hsp90α [7]): 60400 ± 1600 nM; IC50 (Hsp90β): > 100000 nM |
| C#CCCCn1c(Sc2cc(Cl)c(Cl)cc2Cl)nc2c(N)ncnc21 [PU-H51] | 170 ± 110 nM | – | > 200000 | IC50 (Trap-1 [6]): 78400 ± 8900 nM; IC50 (Hsp90β): > 200000 nM |
| CC(C)NCCCn1c(Sc2cc(Cl)cc(Cl)c2)nc2c(N)ncnc21 [WS-13, 8-((3,5-Dichlorophenyl)thio)-9-(3-(isopropylamino)propyl)-9H-purin-6-amine] | 220 ± 80 nM | – | – | IC50 (Hsp90α [7]): 27300 ± 3500 nM; IC50 (Hsp90β; read-out: Hsp90β, FP competition, 6 nM Cy3B-GM, 10 nM protein, 4° C. for 24 h): 41800 ± 1300 nM |
